According to patent US7083962B2, “Carbonyl reductases, polynucleotides comprising DNA encoding the same, methods for producing the same, and methods for producing optically active alcohol utilizing the same” (Daicel Chemical Industries Ltd., priority 2004, dated 2006):

Experiments:
[1] = tested on: carbonyl reductase; assay: Substrate specificity: NADPH-dependent reduction by the carbonyl reductase obtained in Example 1; assay type: biochemical, Torulaspora delbrueckii; conditions: coenzyme NADPH, reduction of 3,4-dimethoxyphenylacetone regarded as 100
Description: (§1) A reaction solution comprising 50 mM potassium phosphate buffer (pH 6.5), 0.2 mM NADPH, 5 mM 3,4-dimethoxyphenylacetone, and an enzyme is reacted at 30° C. Any decrease in absorbance at 340 nm accompanying a decrease in NADPH is measured. 1U is defined as the amount of enzyme which catalyzes a 1 μmol decrease of NADPH in one minute.
(§2) The enzyme obtained in Example 1 was reacted with various ketones, ketoesters, and soon. The activities of the reduction reactions were expressed as relative activities, where the reduction of 3,4-dimethoxyphenylacetone was regarded as 100 (Table 2) (substrate specificity of carbonyl reductase). The activity of dehydrogenating 1-(3,4-dimethoxyphenyl)-2-propanol was measured as follows: A reaction was performed at 30° C. in a reaction solution comprising 50 mM Tris-HCl buffer (pH 8.5), 2.5 mM NADP^+, 5 mM 1-(3,4-dimethoxyphenyl)-2-propanol, and the enzyme. An increase in absorbance at 340 nm, accompanying NADPH production, was measured. 1 U was defined as the amount of enzyme catalyzing the production of 1 μmol NADPH per minute. In addition, the activity of reducing NADH-dependent 3,4-dimethoxyphenylacetone was measured as follows: A reaction was performed at 30° C. in a reaction solution comprising 50 mM potassium phosphate buffer (pH 6.5), 0.2 mM NADH, 5 mM 3,4-dimethoxyphenylacetone, and the enzyme, and decrease in absorbance at 340 nm, accompanying decrease in NADH, was measured. 1 U was defined as the amount of enzyme catalyzing a decrease of 1 μmol NADH per minute.

[2] = tested on: carbonyl reductase; assay: Activity of dehydrogenating 1-(3,4-dimethoxyphenyl)-2-propanol with NADP+; assay type: biochemical, Torulaspora delbrueckii; conditions: substrate 5 mM, coenzyme NADP+, dehydrogenation, pH 8.5, 30° C.
Description: as §2

[3] = 3,4-dimethoxyphenylacetone-reducing activity of cell-free extracts of transformed Escherichia coli; assay type: biochemical, Escherichia coli JM109; conditions: cell-free extracts of E. coli expressing the homolog
Description: as §1
Escherichia coli JM109 strain transformed with plasmid pSE-TDR1, which expresses carbonyl reductase, and plasmid pSG-TDR1, which coexpresses carbonyl reductase and Bacillus subtilis-derived glucose dehydrogenase, was cultured overnight at 30° C. in liquid LB medium containing ampicillin. 0.1 mM IPTG was added, and the strain was further cultured for four hours.
Cells were collected by centrifugation, and then suspended in 50 mM potassium phosphate buffer (pH 6.5) comprising 0.5 M NaCl, 0.02% 2-mercaptoethanol, 2 mM PMSF, and 10% glycerin. Cells were then disrupted by sonication, and centrifuged. The obtained supernatant was used as a cell-free extract. The 3,4-dimethoxyphenylacetone-reducing activity and glucose-dehydrogenating activity of the cell-free extract were measured. The glucose-dehydrogenating activity was measured as follows: Measurements were performed at 30° C. in a reaction solution comprising the enzyme and 100 mM potassium phosphate buffer (pH 6.5), 2.5 mM NAD^+, 100 mM glucose. 1 U was defined as the amount of enzyme to catalyze production of […] of NADH per minute under the aforementioned reaction conditions.
Escherichia coli JM109+strains comprising pSE-YGP7, pSE-YGD9, pSE-YDR1, pSG-YGP7, pSG-YGD9, or pSG-YDR1 were cultured on LB medium comprising ampicillin, induced with 0.1 mM IPTG for four hours, and then centrifuged to collect the cells.
Each of these cell samples was suspended in a cell lysis solution (50 mM KPB pH 8.0, 1 mM EDTA, 0.02% 2-mercaptoethanol, 2 mM PMSF, 10% Glycerol). The cells were ruptured by sonication and then centrifuged to obtain the supernatant, which was used as a cell-free extract.

[4] = Enzymatic synthesis of (S)-1-(3,4-dimethoxyphenyl)-2-propanol: optical purity and reaction yield; assay type: biochemical; conditions: 0.2 U homolog enzyme, 50 mM 3,4-dimethoxyphenylacetone, overnight, 25° C., pH 6.5
Description: A reaction was performed overnight at 25° C. in 1 mL of a reaction solution comprising 200 mM potassium phosphate buffer (pH 6.5), 1 mM NADP^+, 2 U glucose dehydroganase (Wako Pure Chemical Industries, Ltd.), 250 mM glucose, 0.25 U carbonyl reductase, and 50 mM 3,4-dimethoxyphenylacetone. The optical purity of the produced (S)-1-(3,4-dimethoxyphenyl)-2-propanol was measured as follows: One mL of ethyl acetate was added to 0.5 mL of the reaction solution to extract (S)-1-(3,4-dimethoxyphenyl)-2-propanol, and the extraction solvent was desolvated. 0.5 mL of a dissolving solution (n-hexane: isopropanol=4:1) was then added to dissolve the extract, which was then analyzed by liquid chromatography using an optical resolution column. CHIRALCEL OF (4.6 mm×25 cm; Daicel Chemical Industries, Ltd.) was used as the optical resolution column. Chromatography was performed with a wavelength of 220 nm, a flow rate of 1.0 mL/min, and at 40° C. using an eluting solution of n-hexane: isopropanol=4:1.
In addition, the (S)-1-(3,4-dimethoxyphenyl)-2-propanol thus-produced was quantified using gas chromatography, and a yield relative to the raw starting material, 3,4-dimethoxyphenylacetone, was obtained. Specifically, the analysis was performed at a column temperature of 210° C., using Thermon 3000 (10%)-Chromosorb W (AW-DMCS, Mesh 60–80; 3.2 mm×210 cm) with a hydrogen flame ionization detector (FID). The resulting reaction yield was about 95%.
To prepare crude enzyme solution for enzyme reaction, the crude enzyme solution prepared in Example 18 was concentrated ten-folds using a UF membrane. This solution was reacted overnight at 25° C. in 1 mL of a reaction solution comprising 200 mM potassium phosphate buffer (pH 6.5), 1 mM NADP^+, 2 U glucose dehydrogenase (Wako Pure Chemical Industries, Ltd.), 250 mM glucose, 0.2 U homolog enzyme, and 50 mM 3,4-dimethoxyphenylacetone. Optical purity was measured and the produced (S)-1-(3,4-dimethoxyphenyl)-2-propanol was quantified as in Example 6. As a result, YGL157w (pSE-YGP7) produced 93.7% ee (S)-1-(3,4-dimethoxyphenyl)-2-propanol at a yield of 66%, YGL039w (pSE-YGD9) produced 93.6% ee at a yield of 94%, and YDR541c (pSE-YDR1) produced 94.8% ee at a yield of 6%.

**Q.** With `CC(=O)COC(C)=O` [1-Acetoxy-2-propanone] as the molecule, how does the Relative activity ([1]; substrate 20 mM) read?
**A.** 24700%

**Q.** For `CC(=O)C(C)=O` [2,3-Butanedione], which Relative activity ([1]; substrate 20 mM) is on record?
**A.** 1480%

**Q.** For `CCC(=O)C(C)=O` [2,3-Pentanedione], which Relative activity ([1]; substrate 20 mM) is on record?
**A.** 2590%

**Q.** Which Relative activity ([1]; substrate 20 mM) does the source give for `CC(=O)CC(C)=O` [2,4-Pentanedione] here?
**A.** 422%

**Q.** Which Relative activity ([1]; substrate 20 mM) does the source give for `CC(=O)OC(C)C(C)=O` (centres unmarked) [2-Acetoxy-3-butanone] here?
**A.** 589%

**Q.** For `CC(=O)OC1CCCC1=O` (centres unmarked) [2-Acetoxycyclopentanone], which Relative activity ([1]; substrate 20 mM) is on record?
**A.** 567%

**Q.** For `O=C(CCl)c1cccc(Cl)c1` [2-Chloro-1-(3′-chlorophenyl)ethanone], which Relative activity ([1]; substrate 2 mM) is on record?
**A.** 922%

**Q.** Which Relative activity ([1]; substrate 20 mM) does the source give for `CCC(=O)c1ccc(OC)cc1` [4′-Methoxypropiophenone] here?
**A.** 283%

**Q.** Which Relative activity [2] does the source give for `COc1ccc(C[C@@H](C)O)cc1OC` [(R)-1-(3,4-dimethoxyphenyl)-2-propanol] here?
**A.** 0.0%

**Q.** With `COc1ccc(C[C@H](C)O)cc1OC` [(S)-1-(3,4-dimethoxyphenyl)-2-propanol] as the molecule, how does the Relative activity [2] read?
**A.** 0.0%

**Q.** For `CC(=O)c1ccccc1` [Acetophenone], which Relative activity ([1]; substrate 20 mM) is on record?
**A.** 256%

**Q.** For `CC(=O)CCc1ccccc1` [Benzylacetone], which Relative activity ([1]; substrate 20 mM) is on record?
**A.** 739%

**Q.** For `CC12CCC(C(=O)C1=O)C2(C)C` (centres unmarked) [Camphorquinone], which Relative activity ([1]; substrate 1 mM) is on record?
**A.** 644%

**Q.** Which Relative activity ([1]; substrate 20 mM) does the source give for `CCOC(=O)CC(=O)CCl` [Ethyl 4-chloroacetoacetate] here?
**A.** 6780%

**Q.** Which Relative activity ([1]; substrate 20 mM) does the source give for `CCOC(=O)CC(C)=O` [Ethyl acetoacetate] here?
**A.** 3170%

**Q.** With `COCC(C)=O` [Methoxyacetone] as the molecule, how does the Relative activity ([1]; substrate 20 mM) read?
**A.** 117%

**Q.** With `COC(=O)CC(=O)CCl` [Methyl 4-chloroacetoacetate] as the molecule, how does the Relative activity ([1]; substrate 20 mM) read?
**A.** 8040%

**Q.** For `COC(=O)CC(C)=O` [Methyl acetoacetate], which Relative activity ([1]; substrate 20 mM) is on record?
**A.** 3670%

**Q.** For `COC(=O)C(C)=O` [Methyl pyruvate], which Relative activity ([1]; substrate 20 mM) is on record?
**A.** 1320%

**Q.** Which Relative activity ([1]; substrate 20 mM) does the source give for `CC(=O)COc1ccccc1` [Phenoxy-2-propanone] here?
**A.** 939%

B1: YDR541c: Saccharomyces cerevisiae carbonyl reductase homolog, SEQ ID NO: 25, expressed in E. coli from pSE-YDR1 (protein, listed as Saccharomyces cerevisiae)
chain: MSNTVLVSGASGFIALHILSQLLKQDYKVIGTVRSHEKEAKLLRQFQHNPNLTLEIVPDISHPNAFDKVLQKRGREIRYVLHTASPFHYDTTEYEKDLLIPALEGTKNILNSIKKYAADTVERVVVTSSCTAIITLAKMDDPSVVFTEESWNEATWESCQIDGINAYFASKKFAEKAAWEFTKENEDHIKFKLTTVNPSLLFGPQLFDEDVHGHLNTSCEMINGLIHTPVNASVPDFHSIFIDVRDVALAHLYAFQKENTAGKRLVVTNGKFGNQDILDILNEDFPQLRGLIPLGKPGTGDQVIDRGSTTDNSATRKILGFEFRSLHESVHDTAAQILKKENRL
**Q.** For B1, which “3,4-dimethoxyphenylacetone reductase activity (in words)” value [3] is on record?
**A.** confirmed to comprise 3,4-dimethoxyphenylacetone reductase activity

**Q.** And the “Optical purity of the produced (S)-1-(3,4-dimethoxyphenyl)-2-propanol” value (“Optical purity of the produced” below) [4]?
**A.** 94.8 % ee

**Q.** And the “Yield of (S)-1-(3,4-dimethoxyphenyl)-2-propanol” value (“Yield” below) [4]?
**A.** 6%

B2: YGL039w: Saccharomyces cerevisiae carbonyl reductase homolog, SEQ ID NO: 21, expressed in E. coli from pSE-YGD9 (protein, listed as Saccharomyces cerevisiae)
chain: MTTEKTVVFVSGATGFIALHVVDDLLKTGYKVIGSGRSQEKNDGLLKKFKSNPNLSMEIVEDIAAPNAFDKVFQKHGKEIKVVLHIASPVHFNTTDFEKDLLIPAVNGTKSILEAIKNYAADTVEKVVITSSVAALASPGDMKDTSFVVNEESWNKDTWESCQANAVSAYCGSKKFAEKTAWDFLEENQSSIKFTLSTINPGFVFGPQLFADSLRNGINSSSAIIANLVSYKLGDNFYNYSGPFIDVRDVSKAHLLAFEKPECAGQRLFLCEDMFCSQEALDILNEEFPQLKGKIATGEPGSGSTFLTKNCCKCDNRKTKNLLGFQFNKFRDCIVDTASQLLEVQSKS
**Q.** With B2 as the molecule, how does the “3,4-dimethoxyphenylacetone reductase activity (in words)” value [3] read?
**A.** confirmed to comprise 3,4-dimethoxyphenylacetone reductase activity

**Q.** What about the “Optical purity of the produced” value [4] of the same molecule?
**A.** 93.6 % ee

**Q.** And the “Yield” value [4]?
**A.** 94%

B3: YGL157w: Saccharomyces cerevisiae carbonyl reductase homolog, SEQ ID NO: 17, expressed in E. coli from pSE-YGP7 (protein, listed as Saccharomyces cerevisiae)
chain: MTTDTTVFVSGATGFIALHIMNDLLKAGYTVIGSGRSQEKNDGLLKKFNNNPKLSMEIVEDIAAPNAFDEVFKKHGKEIKIVLHTASPFHFETTNFEKDLLTPAVNGTKSILEAIKKYAADTVEKVIVTSSTAALVTPTDMNKGDLVITEESWNKDTWDSCQANAVAAYCGSKKFAEKTAWEFLKENKSSVKFTLSTINPGFVFGPQMFADSLKHGINTSSGIVSELIHSKVGGEFYNYCGPFIDVRDVSKAHLVAIEKPECTGQRLVLSEGLFCCQEIVDILNEEFPQLKGKIATGEPATGPSFLEKNSCKFDNSKTKKLLGFQFYNLKDCIVDTAAQMLEVQNEA
**Q.** For B3, which “3,4-dimethoxyphenylacetone reductase activity (in words)” value [3] is on record?
**A.** confirmed to comprise 3,4-dimethoxyphenylacetone reductase activity

**Q.** What about the “Optical purity of the produced” value [4] of the same molecule?
**A.** 93.7 % ee

**Q.** And the “Yield” value [4]?
**A.** 66%
